Experimental data from BigSolDB 2.1.

Cc1nc(CCl)nc2ccccc12
solubility (mole fraction)
Settings | in THF | in acetone | in acetonitrile | in cyclohexane | in ethanol | in ethyl acetate | in isopropanol | in n-butanol | in n-hexane | in n-propanol
281.15 K | 0.229 | 0.107 | 0.0488 | 0.0193 | 0.061 | 0.105 | 0.0429 | 0.05 | 0.00825 | 0.134
286.15 K | 0.264 | 0.142 | 0.0692 | 0.0266 | 0.0771 | 0.136 | 0.0569 | 0.063 | 0.0115 | 0.145
291.15 K | 0.297 | 0.188 | 0.096 | 0.0361 | 0.0969 | 0.173 | 0.0748 | 0.081 | 0.0146 | 0.158
296.15 K | 0.339 | 0.244 | 0.13 | 0.0484 | 0.123 | 0.217 | 0.0964 | 0.101 | 0.019 | 0.172
301.15 K | 0.374 | 0.297 | 0.174 | 0.0639 | 0.152 | 0.266 | 0.123 | 0.125 | 0.0232 | 0.186
306.15 K | 0.411 | 0.373 | 0.22 | 0.0832 | 0.183 | 0.32 | 0.156 | 0.153 | 0.0289 | 0.201
311.15 K | 0.452 | 0.449 | 0.276 | 0.107 | 0.219 | 0.378 | 0.196 | 0.186 | 0.0372 | 0.217
316.15 K | 0.492 | 0.531 | 0.34 | 0.135 | 0.257 | 0.44 | 0.245 | 0.225 | 0.0476 | 0.234
321.15 K | 0.528 | 0.603 | 0.411 | 0.168 | 0.297 | 0.503 | 0.304 | 0.27 | 0.0598 | 0.253
326.15 K | 0.563 | 0.676 | 0.488 | 0.207 | 0.337 | 0.567 | 0.394 | 0.319 | 0.0751 | 0.273
331.15 K | 0.604 | 0.74 | 0.559 | 0.249 | 0.389 | 0.63 | 0.467 | 0.361 | 0.093 | 0.294
